Measurements from patent publication US20100210602A1, “PhoU (PerF), A P[…] INVOLVED IN [sequence] FORMATION AND TOLERANCE TO MULTIPLE ANTIBIOTICS AND [sequence] AS A DRUG TARGET FOR [sequence] BACTERIA” (priority 2006, published 2010).
Converted amounts (≈) assume the structure as drawn. Read-outs that look alike come from different tables or passages of the source.

Tests used:
Type in all cases: cell-based, M. tuberculosis
[1] = system: PhoY1 mutant
[2] = system: PhoY2 mutant
[3] = system: PhoY1 mutant; remark: listed apart in the source
[4] = system: PhoY2 mutant; remark: listed apart in the source
[5] = system: PhoY1 mutant; remark: listed apart in the source
[6] = system: PhoY2 mutant; remark: listed apart in the source

Row | SMILES | PhoY1 MIC [1] [µg/mL] | PhoY2 MIC [2] [µg/mL] | PhoY1 MIC ([1]; pH 5.6) [µg/mL] | PhoY2 MIC ([2]; pH 5.6) [µg/mL] | MBC ([3]; pH 5.9) [µg/mL] | MIC ([3]; pH 5.9) [µg/mL] | MBC ([4]; pH 5.9) [µg/mL] | MIC ([4]; pH 5.9) [µg/mL] | CFU/ml 3 day ([5]; 200 μg/ml) | CFU/ml 9 day ([5]; 200 μg/ml) | CFU/ml 3 day ([6]; 200 μg/ml) | CFU/ml 9 day ([6]; 200 μg/ml) | MBC [3] [µg/mL] | MIC [3] [µg/mL] | MBC [4] [µg/mL] | MIC [4] [µg/mL] | CFU/ml 3 day ([5]; 8 μg/ml) | CFU/ml 9 day ([5]; 8 μg/ml) | CFU/ml 3 day ([6]; 8 μg/ml) | CFU/ml 9 day ([6]; 8 μg/ml)
1 | NNC(=O)c1ccncc1 [INH, isoniazid] | 0.1 | 0.1 | – | – | – | – | – | – | – | – | – | – | – | – | – | – | – | – | – | –
2 | NC(=O)c1cnccn1 [PZA, pyrazinamide] | – | – | 200 | 100 | 400 (≈ 3250 µM) | 200 (≈ 1620 µM) | 400 (≈ 3250 µM) | 100 (≈ 812 µM) | 4.3 × 10^5 CFU/ml | 3.3 × 10^3 CFU/ml | 4.83 × 10^5 CFU/ml | <10^2 CFU/ml | – | – | – | – | – | – | – | –
3 | CO[C@H]1/C=C/O[C@@]2(C)Oc3c(C)c(O)c4c(O)c(c(/C=N/N5CCN(C)CC5)c(O)c4c3C2=O)NC(=O)/C(C)=C\C=C\[C@H](C)[C@H](O)[C@@H](C)[C@@H](O)[C@@H](C)[C@H](OC(C)=O)[C@@H]1C [RIF, rifampin] | 0.1 | 0.1 | – | – | – | – | – | – | – | – | – | – | 0.2 (≈ 0.243 µM) | 0.05 (≈ 0.0608 µM) | 0.05 (≈ 0.0608 µM) | 0.025 (≈ 0.0304 µM) | 4.97 × 10^5 CFU/ml | 3.13 × 10^4 CFU/ml | 2.27 × 10^5 CFU/ml | <10^2 CFU/ml
